According to patent US20210315893A1 (Galapagos NV, priority 2017, published 2021):

Tests used:
S1PR2 = target: T1, S1PR2 (Homo sapiens, UniProt O95136); test: S1PR2 binding assay (competition with radioactively labeled S1P, SpA); conditions: membranes from stable cell line over expressing S1PR2, SpA beads; read-out: S1P2 EC50 (nM), S1PR2 binding EC50
T1 construct: expressed in transfected cells
Outline: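 Scintillation proximity read-out after 2 h room-temperature incubation of compound, [3H]S1P and S1PR2-overexpressing cell membranes on WGA-coated beads. Buffer: 20 mM Tris pH 7.5, 100 mM NaCl, 10 mM MgCl2, 1 mM Na3VO4, 0.4% fatty-acid-free BSA; plates counted immediately after centrifugation.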

[1] = target: T2, human GPCR sphingosine 1-phosphate receptor 5 (Homo sapiens, UniProt Q9H228); test: S1PR5 selectivity Ca2+ flux assay (antagonist readout); assay type: cell-based; conditions: CHO cells overexpressing human S1PR5 and Gq, agonist at EC80 (20 nM), read-out: S1P5 EC50 (nM), S1P5 antagonist EC50
T2 construct: host or cells: CHO
T2 sequence (Q9H228 whole entry): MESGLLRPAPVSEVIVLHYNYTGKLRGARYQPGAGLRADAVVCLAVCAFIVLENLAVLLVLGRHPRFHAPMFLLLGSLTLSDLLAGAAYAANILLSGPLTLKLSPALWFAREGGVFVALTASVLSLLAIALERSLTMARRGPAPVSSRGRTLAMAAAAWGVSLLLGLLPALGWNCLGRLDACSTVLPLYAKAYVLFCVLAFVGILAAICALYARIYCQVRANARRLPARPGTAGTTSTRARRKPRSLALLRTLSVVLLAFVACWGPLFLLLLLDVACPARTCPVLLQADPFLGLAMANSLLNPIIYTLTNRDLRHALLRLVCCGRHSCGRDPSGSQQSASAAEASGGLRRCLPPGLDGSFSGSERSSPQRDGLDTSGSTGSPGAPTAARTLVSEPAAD
Outline: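 Antagonist readout: after 15 min compound preincubation at 37° C, human S1PR5/Gq CHO cells loaded with Fluo 8 dye received an EC80 challenge of S1PR5-specific agonist, and fluorescence was recorded for 3 min. Maximal-over-background ratios, normalized as % inhibition, gave IC50 by logistic fit.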

[2] = target: T3, human GPCR sphingosine 1-phosphate receptor 1 (Homo sapiens, UniProt P21453); test: S1PR1 selectivity Ca2+ flux assay (antagonist readout); assay type: cell-based; conditions: antagonist readout, CHO cells overexpressing human S1PR1 and Gq, S1P at EC80 (6 nM); read-out: S1P1 EC50 (nM), S1P1 antagonist EC50
T3 construct: host or cells: CHO
T3 sequence (P21453 whole entry): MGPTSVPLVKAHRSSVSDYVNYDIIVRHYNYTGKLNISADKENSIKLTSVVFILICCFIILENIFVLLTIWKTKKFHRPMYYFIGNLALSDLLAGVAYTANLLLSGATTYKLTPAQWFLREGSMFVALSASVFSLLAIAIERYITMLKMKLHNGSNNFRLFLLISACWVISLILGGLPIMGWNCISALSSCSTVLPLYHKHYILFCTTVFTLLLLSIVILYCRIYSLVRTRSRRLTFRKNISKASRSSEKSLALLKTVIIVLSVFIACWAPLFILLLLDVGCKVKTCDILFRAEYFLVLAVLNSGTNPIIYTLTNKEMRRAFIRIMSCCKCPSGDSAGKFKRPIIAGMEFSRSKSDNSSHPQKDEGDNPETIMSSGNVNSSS
Outline: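 Antagonist mode: S1P challenge follows 15 min compound preincubation at 37 °C. Cells are CHO stably expressing human S1PR1, serum-starved 1 h (0.1% FAF BSA), loaded with Fluo 8. Peak-over-baseline fluorescence ratio is normalized to positive/negative controls; IC50 from logistic curve fit.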

HFL-1 cells [3] = test: IL-8 production assay (S1P induced IL-8); assay type: cell-based; conditions: Homo sapiens, HFL1; S1P (1 μM) induced IL-8 in HFL-1 cells, starvation medium without HSA; read-out: IL8 EC50
Outline: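 HFL-1 fibroblasts in low-serum medium were pretreated 1 h with a 10-point 1/3 series of compound starting at 30 μM (0.3% DMSO).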

HFL-1 cells [4] = test: IL8 assay in the presence of Human Serum Albumin; conditions: HFL1, read-out: HSA IL8 EC50
Experimental: To evaluate the influence of plasma protein binding of S1P as well as compound, the S1P induced IL-8 levelswereevaluatedin presence of Human Serum Albumin (HSA, equivalent to 40% human serum).
Human Fetal Lung cells (HFL-1) are seeded in 96 well plates in growth medium (F12K+10% heat inactivated FBS+1% Pen/strep). […] On day three, compounds are added (10 point serial dilution, 30 μM highest concentration, 1/3 dilution, 0.3% DMSO final) and plates are incubated for 1 h at 37° C., 5% CO2. Subsequently S1P at 5 μM final concentration is added and plates are incubated for 16 to 24 h at 37° C., 5% COafter which the supernatant was collected. IL-8 levels in the supernatant are determined with the IL-8 ELISA of R&D systems.

[5] = target: T4, human GPCR sphingosine 1-phosphate receptor 2 (Homo sapiens, UniProt O95136); test: S1PR2 antagonist Ca2+ flux assay; assay type: cell-based; conditions: antagonist mode, CHO-S1PR2 cells, S1P at EC80, Ca2+ fluorescence; read-out: S1P2 EC50 (nM), S1P2 antagonist EC50
T4 construct: host or cells: CHO
T4 sequence (O95136 whole entry): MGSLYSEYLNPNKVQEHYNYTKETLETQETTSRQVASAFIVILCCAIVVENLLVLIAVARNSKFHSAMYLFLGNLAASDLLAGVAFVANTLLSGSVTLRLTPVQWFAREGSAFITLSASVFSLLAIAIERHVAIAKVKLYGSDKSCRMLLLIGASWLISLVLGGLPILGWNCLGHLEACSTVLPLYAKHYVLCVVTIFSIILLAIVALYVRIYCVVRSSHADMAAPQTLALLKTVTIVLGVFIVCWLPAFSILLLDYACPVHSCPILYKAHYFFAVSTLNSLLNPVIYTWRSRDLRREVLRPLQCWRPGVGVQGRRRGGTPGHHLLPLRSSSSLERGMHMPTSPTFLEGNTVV
Outline: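 Antagonist mode: 15 min after compound addition, S1P (EC80) stimulates Fluo8-loaded, 1 h-starved CHO-S1PR2 cells, Ca2+ read over 3 min; a prior 3-min read checks compound agonism. EC50 from peak/baseline fluorescence ratio, normalised versus vehicle and S1P EC50 (antagonist) or EC100 (agonist).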

T1 sequence (O95136 whole entry): as above

Row | SMILES | EC50 (S1PR2) | EC50 [1] | EC50 [2] | EC50 (HFL-1 cells [3]) | EC50 (HFL-1 cells [4]) | EC50 [5]
1 | O=C(Cn1nc(Cc2nc3cc(OCC(F)F)c(F)cc3[nH]2)c2c(c1=O)CCCC2)N1CCOCC1 [Compound 179, 4-[[5-(2,2-difluoroethoxy)-6-fluoro-1H-benzimidazol-2-yl]methyl]-2-(2-morpholino-2-oxo-ethyl)-5,6,7,8-tetrahydrophthalazin-1-one] | 207 nM | 19800 nM | ≥ 19800 nM | 352 nM | 353 nM | 107 nM
2 | N#Cc1cc2nc(Cc3nn(CC(=O)N4CCC[C@H]4CO)c(=O)c4ccccc34)[nH]c2cc1OCC(F)F [Compound 198, 6-(2,2-difluoroethoxy)-2-[[3-[2-[(2S)-2-(hydroxymethyl)pyrrolidin-1-yl]-2-oxo-ethyl]-4-oxo-phthalazin-1-yl]methyl]-1H-benzimidazole-5-carbonitrile] | 486 nM | 19800 nM | ≥ 19800 nM | 74.8 nM | 210 nM | 416 nM
3 | N#Cc1cc2nn(Cc3nn(CC(=O)NC4CCCC4)c(=O)c4ccccc34)cc2cc1OCC(F)F [Compound 208, 2-[4-[[6-cyano-5-(2,2-difluoroethoxy)indazol-2-yl)methyl]-1-oxo-phthalazin-2-yl]-N-cyclopentyl-acetamide] | 1510 nM | 19800 nM | ≥ 19800 nM | 9950 nM | 3320 nM | 10800 nM
4 | N#Cc1cc2nn(Cc3nn(CC(=O)N4CCOCC4)c(=O)c4ccccc34)cc2cc1OCC1CC1 [Compound 209] | 235 nM | 19800 nM | ≥ 19800 nM | 123 nM | 382 nM | 194 nM
5 | N#Cc1cc2[nH]c(Cc3nn(CC(=O)N4CCN(CC5CC5)CC4)c(=O)c4ccccc34)nc2cc1OCC(F)F [Compound 218, 2-[[3-[2-[4-(cyclopropylmethyl)piperazin-1-yl]-2-oxo-ethyl]-4-oxo-phthalazin-1-yl]methyl]-6-(2,2-difluoroethoxy)-3H-benzimidazole-5-carbonitrile] | 526 nM | 19800 nM | ≥ 19800 nM | 151 nM | 15200 nM | 1410 nM
6 | CC1(C)CN(C(=O)Cn2nc(Cc3nc4cc(OCC(F)F)c(C#N)cc4[nH]3)c3ccccc3c2=O)CCO1 [Compound 227, 6-(2,2-difluoroethoxy)-2-[[3-[2-(2,2-dimethylmorpholin-4-yl)-2-oxo-ethyl]-4-oxo-phthalazin-1-yl]methyl]-3H-benzimidazole-5-carbonitrile] | 82.1 nM | 19800 nM | ≥ 19800 nM | 16.9 nM | 84.2 nM | 14.5 nM
7 | CS(=O)(=O)NC(=O)Cn1nc(Cc2nc3cc(OCC4CC4)c(Cl)cc3[nH]2)c2ccccc2c1=O [Compound 242, 2-[4-[[6-chloro-5-(cyclopropylmethoxy)-1H-benzimidazol-2-yl]methyl]-1-oxo-phthalazin-2-yl]-N-methylsulfonyl-acetamide] | 299 nM | 19800 nM | 560 nM | 77.3 nM | 111 nM | 19.2 nM
8 | CS(=O)(=O)NC(=O)Cn1nc(Cn2cc3cc(OCC4CC4)c(Cl)cc3n2)c2ccccc2c1=O [Compound 243, 2-[4-[[6-chloro-5-(cyclopropylmethoxy)indazol-2-yl]methyl]-1-oxo-phthalazin-2-yl]-N-methylsulfonyl-acetamide] | 400 nM | 19800 nM | ≥ 19800 nM | 764 nM | 2580 nM | 9 nM

The remaining molecules from weak to strong by EC50 (S1PR2), led by results:

Row | EC50 (S1PR2) | EC50 [1] | EC50 [2] | EC50 (HFL-1 cells [3]) | EC50 (HFL-1 cells [4]) | EC50 [5] | SMILES
9 | 296 nM | 19800 nM | ≥ 19800 nM | 120 nM | 546 nM | 117 nM | CN(C)C1CCN(C(=O)Cn2nc(Cc3nc4cc(C#N)c(OCC(F)F)cc4[nH]3)c3c(c2=O)CCCC3)C1 (stereo not drawn) [Compound 204, 6-(2,2-difluoroethoxy)-2-[[3-[2-[3-(dimethylamino)pyrrolidin-1-yl]-2-oxo-ethyl]-4-oxo-5,6,7,8-tetrahydrophthalazin-1-yl]methyl]-1H-benzimidazole-5-carbonitrile]
10 | 270 nM | 19800 nM | ≥ 19800 nM | 34.2 nM | 378 nM | 13 nM | CC1(C)CCN(C(=O)Cn2nc(Cc3nc4cc(OCC(F)F)c(C#N)cc4[nH]3)c3ccccc3c2=O)CC1 [Compound 234, 6-(2,2-difluoroethoxy)-2-[[3-[2-(4,4-dimethyl-1-piperidyl)-2-oxo-ethyl]-4-oxo-phthalazin-1-yl]methyl]-3H-benzimidazole-5-carbonitrile]
11 | 159 nM | 19800 nM | ≥ 19800 nM | 70.7 nM | 178 nM | 41.4 nM | N#Cc1cc2[nH]c(Cc3nn(CC(=O)N4CCC(O)(C5CC5)CC4)c(=O)c4ccccc34)nc2cc1OCC(F)F [Compound 213, 2-[[3-[2-(4-cyclopropyl-4-hydroxy-1-piperidyl)-2-oxo-ethyl]-4-oxo-phthalazin-1-yl)methyl]-6-(2,2-difluoroethoxy)-3H-benzimidazole-5-carbonitrile]
12 | 142 nM | 19800 nM | ≥ 19800 nM | 46.5 nM | 159 nM | 39.7 nM | N#Cc1cc2[nH]c(Cc3nn(CC(=O)N4C[C@H](O)[C@@H](O)C4)c(=O)c4ccccc34)nc2cc1OCC(F)F [Compound 211, 6-(2,2-difluoroethoxy)-2-[[3-[2-[(3S,4S)-3,4-dihydroxypyrrolidin-1-yl]-2-oxo-ethyl]-4-oxo-phthalazin-1-yl]methyl]-3H-benzimidazole-5-carbonitrile]
13 | 138 nM | 19800 nM | 13200 nM | 63.8 nM | 152 nM | 44.8 nM | CC1(O)CCN(C(=O)Cn2nc(Cc3nc4cc(OCC(F)F)c(C#N)cc4[nH]3)c3ccccc3c2=O)C1 (stereo not drawn) [Compound 201, 6-(2,2-difluoroethoxy)-2-[[3-[2-(3-hydroxy-3-methyl-pyrrolidin-1-yl)-2-oxo-ethyl]-4-oxo-phthalazin-1-yl]methyl]-3H-benzimidazole-5-carbonitrile]
14 | 124 nM | 19800 nM | ≥ 19800 nM | 7.04 nM | 33.4 nM | 34.6 nM | N#Cc1cc2[nH]c(Cc3nn(CC(=O)N4CCC(O)(C5CC5)C4)c(=O)c4ccccc34)nc2cc1OCC(F)F (stereo not drawn) [Compound 214, 2-[[3-[2-(3-cyclopropyl-3-hydroxy-pyrrolidin-1-yl)-2-oxo-ethyl]-4-oxo-phthalazin-1-yl]methyl]-6-(2,2-difluoroethoxy)-3H-benzimidazole-5-carbonitrile]
15 | 65.6 nM | 19800 nM | ≥ 19800 nM | 10.4 nM | 64 nM | 19.2 nM | N#Cc1cc2[nH]c(Cc3nn(CC(=O)N4CCC(O)C(F)(F)C4)c(=O)c4ccccc34)nc2cc1OCC(F)F (stereo not drawn) [Compound 212]
16 | 44.7 nM | 19800 nM | ≥ 19800 nM | 12.2 nM | 16 nM | 13 nM | N#Cc1cc2[nH]c(Cc3nn(CC(=O)N4CCC(O)(C(F)(F)F)C4)c(=O)c4ccccc34)nc2cc1OCC(F)F (stereo not drawn) [Compound 216, 6-(2,2-difluoroethoxy)-2-[[3-[2-[3-hydroxy-3-(trifluoromethyl)pyrrolidin-1-yl]-2-oxo-ethyl]-4-oxo-phthalazin-1-yl]methyl]-3H-benzimidazole-5-carbonitrile]
17 | 2.58 nM | 19800 nM | 698 nM | 0.04 nM | 1.36 nM | 2.23 nM | O=C(Cc1nn(Cc2nc3cc(OCC4CC4)c(Br)cc3[nH]2)c2ccccc2c1=O)N1C[C@H](O)[C@@H](O)C1 [Compound 217, 1-[[6-bromo-5-(cyclopropylmethoxy)-1H-benzimidazol-2-yl]methyl]-3-[2-[(3S,4S)-3,4-dihydroxypyrrolidin-1-yl]-2-oxo-ethyl]cinnolin-4-one]
